Values of other authors in patent US20050214675A1, “Positive-type photosensitive composition” (FUJI PHOTO FILM CO., LTD., priority 2004, published 2005).
Where two headings read alike, the source gives them in different places.

Conditions: for Hammett value: cation of the sulfonium salt used in the plate, third embodiment Tables 1 to 4; for σ (sum of Hammett values of substituents on the aryl skeletons of the cation): o-position treated as p-position
[1] = compound list of first embodiment
[2] = compound list of second embodiment

Row | Hammett value | σ (sum of Hammett values of substituents on the aryl skeletons of the cation) [1] | σ (sum of Hammett values of substituents on the aryl skeletons of the cation) [2] | SMILES
1 | 0 |  |  | O=C(O)c1c2ccccc2cc2ccccc12 [(28)]
2 |  | 0.26 | 0.26 | CC(C)(C)c1ccc([S+](c2ccc(Cl)cc2)c2ccc(Cl)cc2)cc1 [(85)]
3 |  | 0.29 | 0.29 | Cc1ccc([S+](c2ccc(Cl)cc2)c2ccc(Cl)cc2)cc1 [(84)]
4 |  | −0.848 | −0.848 | Cc1ccc([S+](c2ccc(C)cc2)c2cc(C)c(O)c(C)c2)cc1 [(89)]
5 | 0.69 |  |  | COc1cc(O)c(C(=O)c2ccccc2)cc1S(=O)(=O)O [(77)]
6 |  | 0.186 | 0.186 | Fc1ccc([S+](c2ccc(F)cc2)c2ccc(F)cc2)cc1 [(87)]
7 | 0.69 |  |  | O=Cc1ccccc1S(=O)(=O)O [(72)]
8 |  | −0.804 | −0.804 | COc1ccc([S+](c2ccc(OC)cc2)c2ccc(OC)cc2)cc1 [(88)]
9 |  | −0.59 | −0.59 | CC(C)(C)c1ccc([S+](c2ccc(C(C)(C)C)cc2)c2ccc(C(C)(C)C)cc2)cc1 [(86)]
10 | 0.69 |  |  | O=S(=O)(O)c1ccc(O)cc1 [(68)]
11 | 0.69 |  |  | COC(=O)c1cc(C(=O)OC)cc(S(=O)(=O)O)c1 [(75)]
12 | 0.69 |  |  | O=C(O)c1cc(C(=O)O)cc(S(=O)(=O)O)c1 [(76)]
